Active and inactive are the calls of the source. The calls are words filed in the database; no cut-off is given here.
How the values were obtained:
SW780 [1] = test: Induction of autophagy in human SW780 cells transfected with GFP-LC3 assessed as formation of autophagosomes incubated for 6 hrs in presence of 3-MA by laser scanning confocal microscopic analysis; format: functional, cell-based
SW780 [2] = test: Induction of apoptosis in human SW780 cells assessed as early apoptotic cells at 0.5 uM incubated for 24 hrs by Annexin V-FITC/PI staining based flow cytometry (reference value: 1.43 %); format: functional
SW780 [3] = test: Induction of apoptosis in human SW780 cells assessed as necrotic cells at 0.5 uM incubated for 24 hrs by Annexin V-FITC/PI staining based flow cytometry (reference value: 92.3 %); format: functional
SW780 [4] = test: Induction of autophagy in human SW780 cells assessed as formation of autophagic vacuoles in cytoplasm by TEM analysis; format: functional, cell-based
SW780 [5] = test: Antiproliferative activity against human SW780 cells assessed as cell survival at 0.5 uM measured after 72 hrs by CCK8 assay relative to control; format: functional; conditions: read-out: Activity
SW780 [6] = test: Upregulation of intracellular cathepsin B activity in human SW780 cells; format: functional, cell-based
[7] = target: T1, Serine/threonine-protein kinase mTOR (Homo sapiens, UniProt P42345); test: Inhibition of mTOR (unknown origin) by kinase profiling assay
SW780 [8] = test: Induction of apoptosis in human SW780 cells assessed as necrotic cells at 0.2 uM incubated for 24 hrs by Annexin V-FITC/PI staining based flow cytometry (reference value: 92.3 %); format: functional
SW780 [9] = test: Upregulation of Hsp70 level in human SW780 cells by Western blot analysis; format: functional, cell-based; conditions: dose 0.2-0.5 µM
SW780 [10] = test: Induction of autophagy in human SW780 cells transfected with GFP-LC3 assessed as formation of autophagosomes incubated for 6 hrs in presence of Baf-A1 by laser scanning confocal microscopic analysis; format: functional, cell-based
J82 [11] = test: Antitumor activity against human J82 cells xenografted in nude Balb/c mouse assessed as decrease in mTOR phosphorylation level at 30 mg/kg, po administered everyday for 17 days by IHC analysis; format: functional, organism-based; conditions: time 17.0 day
SW780 [12] = test: Downregulation of phosphorylated mTOR level in human SW780 cells at 0.2 to 0.5 uM by Western blot analysis; format: functional, cell-based; conditions: dose 0.2-0.5 µM
SW780 [13] = test: Upregulation of cleaved caspase-3 level in human SW780 cells at 0.2 to 0.5 uM by Western blot analysis; format: functional, cell-based; conditions: dose 0.2-0.5 µM
SW780 [14] = test: Induction of apoptosis in human SW780 cells assessed as early apoptotic cells at 0.2 uM incubated for 24 hrs by Annexin V-FITC/PI staining based flow cytometry (reference value: 1.43 %); format: functional
Heat shock protein HSP90 [15] = target: T2, Heat shock protein HSP90 (Homo sapiens, UniProt P07900+P08238); conditions: dose 100.0 nM
Description: Inhibition of Hsp90 (unknown origin) at 100 nM by TR-FRET assay relative to control

SW780 [16] = test: Downregulation of CDK4 level in human SW780 cells at 0.2 to 0.5 uM by Western blot analysis; format: functional, cell-based; conditions: dose 0.2-0.5 µM
SW780 [17] = test: Induction of apoptosis in human SW780 cells assessed as viable cells at 0.2 uM incubated for 24 hrs by Annexin V-FITC/PI staining based flow cytometry (reference value: 92.3 %); format: functional; conditions: read-out: Activity
J82 [18] = test: Antitumor activity against human J82 cells xenografted in nude Balb/c mouse assessed as […] at 30 mg/kg, po administered everyday for 17 days by IHC analysis; format: functional, organism-based; conditions: time 17.0 day
[19] = target: Phosphatidylinositol 4,5-bisphosphate 3-kinase catalytic subunit alpha isoform (Homo sapiens, UniProt P42336); test: Inhibition of PI3Kalpha (unknown origin) by kinase profiling assay
Chain of Phosphatidylinositol 4,5-bisphosphate 3-kinase catalytic subunit alpha isoform (P42336 whole entry, canonical isoform): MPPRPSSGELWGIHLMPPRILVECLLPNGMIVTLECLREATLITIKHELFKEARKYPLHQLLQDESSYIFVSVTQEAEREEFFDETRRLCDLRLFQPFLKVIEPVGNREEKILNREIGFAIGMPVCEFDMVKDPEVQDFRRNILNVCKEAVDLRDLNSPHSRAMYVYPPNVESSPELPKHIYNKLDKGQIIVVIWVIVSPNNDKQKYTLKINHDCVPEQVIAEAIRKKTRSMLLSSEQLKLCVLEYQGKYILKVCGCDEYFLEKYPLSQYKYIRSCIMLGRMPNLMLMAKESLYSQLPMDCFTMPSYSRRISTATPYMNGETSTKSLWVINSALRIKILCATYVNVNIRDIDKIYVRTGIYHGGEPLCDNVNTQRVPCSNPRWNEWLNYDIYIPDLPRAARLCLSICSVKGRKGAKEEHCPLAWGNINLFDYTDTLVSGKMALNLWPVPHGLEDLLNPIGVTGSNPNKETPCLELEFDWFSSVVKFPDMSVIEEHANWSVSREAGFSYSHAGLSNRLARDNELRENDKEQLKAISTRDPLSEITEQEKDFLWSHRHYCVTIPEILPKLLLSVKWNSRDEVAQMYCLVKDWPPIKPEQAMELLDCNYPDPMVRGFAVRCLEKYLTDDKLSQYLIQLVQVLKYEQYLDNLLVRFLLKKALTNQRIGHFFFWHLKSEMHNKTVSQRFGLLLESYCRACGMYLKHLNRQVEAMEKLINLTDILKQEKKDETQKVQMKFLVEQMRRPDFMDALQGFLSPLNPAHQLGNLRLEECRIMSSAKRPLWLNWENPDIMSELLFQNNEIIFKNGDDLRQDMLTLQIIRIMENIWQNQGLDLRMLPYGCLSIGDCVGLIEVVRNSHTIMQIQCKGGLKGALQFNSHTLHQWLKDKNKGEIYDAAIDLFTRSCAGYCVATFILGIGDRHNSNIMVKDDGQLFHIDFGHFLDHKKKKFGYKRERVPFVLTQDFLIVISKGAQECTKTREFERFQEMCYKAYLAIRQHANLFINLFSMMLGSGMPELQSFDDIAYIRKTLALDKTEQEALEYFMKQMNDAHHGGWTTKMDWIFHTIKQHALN

SW780 [20] = test: Upregulation of cytochrome C level in human SW780 cells at 0.2 to 0.5 uM by Western blot analysis; format: functional, cell-based; conditions: dose 0.2-0.5 µM
SW780 [21] = test: Antiproliferative activity against human SW780 cells assessed as inhibition of cell proliferation at 1 uM by CCK8 assay relative to control; format: functional
SW780 [22] = test: Downregulation of phosphorylated AKT level in human SW780 cells at 0.2 to 0.5 uM by Western blot analysis; format: functional, cell-based; conditions: dose 0.2-0.5 µM
SW780 [23] = test: Upregulation of LC3-II level in human SW780 cells at 0.2 to 0.5 uM by Western blot analysis; format: functional, cell-based; conditions: dose 0.2-0.5 µM
[24] = Toxicity in nude Balb/c mouse xenografted with human J82 cells assessed as body weight reduction at 30 mg/kg, po administered everyday for 17 days; format: organism-based; conditions: in vivo, 408 h, time 17 day
T-24 [25] = test: Antiproliferative activity against human T24 cells assessed as inhibition of cell proliferation at 1 uM by CCK8 assay relative to control; format: functional
SW780 [26] = test: Downregulation of c-Raf level in human SW780 cells at 0.2 to 0.5 uM by Western blot analysis; format: functional, cell-based; conditions: dose 0.2-0.5 µM
SW780 [27] = test: Downregulation of p62 level in human SW780 cells at 0.2 to 0.5 uM by Western blot analysis; format: functional, cell-based; conditions: dose 0.2-0.5 µM
SW780 [28] = test: Upregulation of intracellular cathepsin B activity in human SW780 cells in presence of Baf-A1; format: functional, cell-based
T-24 [29] = test: Antiproliferative activity against human T24 cells assessed as inhibition of cell proliferation by CCK8 assay; format: functional, cell-based
Heat shock protein HSP90 [30] = target: T2, Heat shock protein HSP90; test: Inhibition of Hsp90 (unknown origin) by TR-FRET assay; format: protein assay
J82 [31] = test: Antiproliferative activity against human J82 cells assessed as inhibition of cell proliferation at 1 uM by CCK8 assay relative to control; format: functional
SW780 [32] = test: Induction of apoptosis in human SW780 cells assessed as late apoptotic cells at 0.5 uM incubated for 24 hrs by Annexin V-FITC/PI staining based flow cytometry (reference value: 2.30 %); format: functional
SW780 [33] = test: Downregulation of CDC2 level in human SW780 cells at 0.2 to 0.5 uM by Western blot analysis; format: functional, cell-based; conditions: dose 0.2-0.5 µM
J82 [34] = test: Antitumor activity against human J82 cells xenografted in nude Balb/c mouse assessed as tumor growth inhibition at 30 mg/kg, po administered everyday for 17 days; format: functional, organism-based; conditions: time 17.0 day
SW780 [35] = test: Induction of apoptosis in human SW780 cells assessed as late apoptotic cells at 0.2 uM incubated for 24 hrs by Annexin V-FITC/PI staining based flow cytometry (reference value: 2.30 %); format: functional
J82 [36] = test: Antitumor activity against human J82 cells xenografted in nude Balb/c mouse assessed as increase in LC3-II level at 30 mg/kg, po administered everyday for 17 days by IHC analysis; format: functional, organism-based; conditions: time 17.0 day
SW780 [37] = test: Induction of apoptosis in human SW780 cells assessed as viable cells at 0.5 uM incubated for 24 hrs by Annexin V-FITC/PI staining based flow cytometry (reference value: 92.3 %); format: functional; conditions: read-out: Activity
[38] = target: T1, Serine/threonine-protein kinase mTOR; test: Inhibition of mTOR (unknown origin) at 100 nM by kinase profiling assay relative to control
SW780 [39] = test: Induction of autophagy in human SW780 cells transfected with GFP-LC3 assessed as formation of autophagosomes at 0.5 uM incubated for 24 hrs by laser scanning confocal microscopic analysis; format: functional, cell-based
SW780 [40] = test: Antiproliferative activity against human SW780 cells assessed as inhibition of cell proliferation by CCK8 assay; format: functional, cell-based
SW780 [41] = test: Upregulation of intracellular cathepsin B activity in human SW780 cells in presence of 3-MA; format: functional, cell-based
J82 [42] = test: Antiproliferative activity against human J82 cells assessed as inhibition of cell proliferation by CCK8 assay; format: functional, cell-based

CC(C)c1cc(C(=O)N2CCc3c(sc4nc(-c5ccc(NC(=O)Nc6ccc(F)c(Cl)c6)cc5)nc(N5CCOCC5)c34)C2)c(O)cc1O
Activity (SW780 [1]): inactive
Activity (SW780 [2]): 9.23%
Activity (SW780 [3]): 2.31%
Activity (SW780 [4]): Active
viability at 0.5 µM (SW780 [5]): < 40%
Activity (SW780 [6]): Active
IC50 [7]: 29 nM
Activity (SW780 [8]): 4.38%
Activity (SW780 [9]): Dose-Dependent Effect
Activity (SW780 [10]): Active
Activity (J82 [11]): Active
Activity (SW780 [12]): Active
Activity (SW780 [13]): Active
Activity (SW780 [14]): 4.77%
inhibition (Heat shock protein HSP90 [15]): 83.3%
Activity (SW780 [16]): Active
viability at 0.2 µM (SW780 [17]): 87.6%
Activity (J82 [18]): Active
IC50 [19]: 4980 nM
Activity (SW780 [20]): Active
inhibition at 1 µM (SW780 [21]): 93.8%
Activity (SW780 [22]): Active
Activity (SW780 [23]): Active
Activity [24]: Non-Toxic
inhibition at 1 µM (T-24 [25]): 91.7%
Activity (SW780 [26]): Active
Activity (SW780 [27]): Active
Activity (SW780 [28]): inactive
IC50 (T-24 [29]): 410 nM
IC50 (Heat shock protein HSP90 [30]): 69 nM
inhibition at 1 µM (J82 [31]): 79.3%
Activity (SW780 [32]): 5.01%
Activity (SW780 [33]): Active
inhibition (J82 [34]): Active
Activity (SW780 [35]): 3.29%
Activity (J82 [36]): Active
viability at 0.5 µM (SW780 [37]): 83.5%
inhibition [38]: 83.1%
Activity (SW780 [39]): Active
IC50 (SW780 [40]): 160 nM
Activity (SW780 [41]): inactive
IC50 (J82 [42]): 360 nM

From ChEMBL document CHEMBL5352392, “Design, synthesis, and biological evaluation of novel dual inhibitors of heat shock protein 90/mammalian target of rapamycin (Hsp90/mTOR) against bladder cancer cells” (Eur J Med Chem, 2022)
